According to US20060292112A1, “Dendrimer-photosensitizer complexes for medical applications” (priority 1999, published 2006):

Experiments:
Format in all cases: physicochemical
[1] = Fluorescence life time in ethanol; conditions: for Fluorescence life time (τFl): for Pheo 16 the longer component of a double exponential decay; for Fluorescence life time (τFl), second decay component: double exponential decay
[2] = Singlet oxygen quantum yield (photoinduced singlet oxygen) in ethanol; conditions: for singlet oxygen quantum yield (ΦA): in ethanol, before light exposure
Source text: The quantum yield of the photoinduced singlet oxygen of Pheo (0.52) decreases to 0.05 for Pheo 16 (see Table 1).
(§1) They equal to the parameters of the free Pheo.

[3] = Fluorescence intensity in ethanol; conditions: versus fluorescence intensity of Pheo in ethanol
Source text: The fluorescence spectra of al samples show nearly the same shape. However, the fluorescence intensity of Pheo 16 in ethanol is 50 times smaller than the fluorescence intensity of Pheo in ethanol (see FIG. 2).

[4] = Release of Pheo from dendrimer complex by light exposure (MALDI); conditions: after 30 min light exposure with UV lamp (~1 kJ)
Source text: as §1
However, this process occurs only in the presence of oxygen. Presumably, the primary generated singlet oxygen caused the separation of the bonds between the dye molecules and the dendrimer.

Row | Fluorescence life time (τFl) [1] | Fluorescence life time (τFl) ([1]; listed as Pheo) | Molecule | singlet oxygen quantum yield (ΦA) [2] | fluorescence intensity relative to Pheo [3] | Fluorescence life time (τFl), second decay component ([1]; relation of amplitudes 2 to 1) | Fluorescence life time (τFl), second decay component ([1]; relation of amplitudes 2 to 1, listed as Pheo-16-dendrimer complex) | fluorescence lifetime, first component of double exponential decay ([1]; relation of amplitudes 2 to 1) | release of Pheo on light exposure [4] | singlet oxygen quantum yield after light exposure ([2]; after light exposure of a 3 ml sample with 40 J and 514 nm)
1 | 6.1 ± 0.3 ns | – | C=Cc1c(C)c2cc3nc(c4c5[nH]c(cc6nc(cc1[nH]2)C(C)=C6CC)c(C)c5C(=O)[C@@H]4C(=O)OC)[C@@H](CCC(=O)ON1C(=O)CCC1=O)[C@@H]3C [Pheo-succinimide ester, pheophorbide a-succinimide ester] | 0.55 | – | – | – | – | – | –
2 | 5.7 ± 0.2 ns | 5.7 ns | Pheophorbide a [reference compound] | 0.52 | – | – | – | – | – | –

Row | Molecule | Fluorescence life time (τFl) [1] | Fluorescence life time (τFl) ([1]; listed as Pheo) | singlet oxygen quantum yield (ΦA) [2] | fluorescence intensity relative to Pheo [3] | Fluorescence life time (τFl), second decay component ([1]; relation of amplitudes 2 to 1) | Fluorescence life time (τFl), second decay component ([1]; relation of amplitudes 2 to 1, listed as Pheo-16-dendrimer complex) | fluorescence lifetime, first component of double exponential decay ([1]; relation of amplitudes 2 to 1) | release of Pheo on light exposure [4] | singlet oxygen quantum yield after light exposure ([2]; after light exposure of a 3 ml sample with 40 J and 514 nm)
3 | Pheophorbide a-diaminobutane-polypropylene-imine Dendrimer 3.0 Complex [Pheo 16] | 4.9 ± 0.3 ns | – | 0.05 | 50 times smaller | 0.5 ns | 0.5 ± 0.3 ns | 4.5 ns | release of Pheo | 0.47
